The test system of test [1] is ATRA-resistant NB4-LR2. The experiment in a line: Cell cycle arrest in human ATRA-resistant NB4-LR2 cells transfected with pLVX-shRXRalpha assessed as increase in PLK1 expression at 8 uM incubated for 12 hrs by Western blot analysis. The test is classed as functional, cell-based. Background: A western blot detects proteins with antibodies after separation by electrophoresis.

Test [2] can be described thus: Induction of apoptosis in human ATRA-resistant NB4-LR2 cells assessed as early apoptotic cells at 10 uM incubated for 24 hrs by Annexin V-FITC/PI staining based flow cytometric analysis (reference value: 5.38 %). The test is classed as functional. For orientation: In flow cytometry, cells or beads pass a laser one at a time.
The nature of test [3]: Induction of apoptosis in human ATRA-resistant NB4-LR2 cells assessed as viable cells at 10 uM incubated for 24 hrs by Annexin V-FITC/PI staining based flow cytometric analysis (reference value: 87.30 %). It is filed as functional. The conditions noted are these: read-out: Activity.
For test [4], the system named is NB-4. In words: Induction of apoptosis in human NB4 cells assessed as viable cells at 10 uM incubated for 24 hrs by Annexin V-FITC/PI staining based flow cytometric analysis (reference value: 92.36 %). The note with it: read-out: Activity. It is filed as functional.
Test [5] has as its system NB-4. In words: Induction of apoptosis in human NB4 cells assessed as early apoptotic cells at 10 uM incubated for 24 hrs by Annexin V-FITC/PI staining based flow cytometric analysis (reference value: 4.37 %). It is filed as functional.
Test [6] concerns ATRA-resistant NB4-LR2. The experiment in a line: Cell cycle arrest in human ATRA-resistant NB4-LR2 cells transfected with pLVX-shRXRalpha assessed as increase in cyclin B1 expression at 8 uM incubated for 12 hrs by Western blot analysis. The test is classed as functional, cell-based.
The subject of test [7] is ATRA-resistant NB4-LR2. In words: Induction of apoptosis in human ATRA-resistant NB4-LR2 cells transfected with pLVX-shRXRalpha assessed as increase in cleaved PARP expression at 8 uM incubated for 12 hrs by Western blot analysis. The test is classed as functional, cell-based.
The nature of test [8]: Induction of apoptosis in human ATRA-resistant NB4-LR2 cells assessed as late apoptotic cells at 10 uM incubated for 24 hrs by Annexin V-FITC/PI staining based flow cytometric analysis (reference value: 7.23 %). It is filed as functional.
For test [9], the system named is NB-4. The experiment in a line: Induction of apoptosis in human NB4 cells assessed as late apoptotic cells at 10 uM incubated for 24 hrs by Annexin V-FITC/PI staining based flow cytometric analysis (reference value: 3.20 %). It is filed as functional.
Test [10] is described as follows: Induction of apoptosis in human ATRA-resistant NB4-LR2 cells assessed as necrotic cells at 10 uM incubated for 24 hrs by Annexin V-FITC/PI staining based flow cytometric analysis (reference value: 0.08 %). It is filed as functional.
Test [11] has as its system NB-4. In words: Induction of apoptosis in human NB4 cells assessed as necrotic cells at 10 uM incubated for 24 hrs by Annexin V-FITC/PI staining based flow cytometric analysis (reference value: 0.07 %). It is filed as functional.

The source made the active and inactive calls. The rule behind the calls is not given here.

Consider `COc1ccc(CC(=O)N/N=C/c2c(O)ccc3ccccc23)cc1`, for which the outcome in the test on ATRA-resistant NB4-LR2 [1], with ATRA-resistant NB4-LR2 [6] and in the test on ATRA-resistant NB4-LR2 [7] was inactive. Moreover, the Activity in [2] was 17.31%; with NB-4 [5], 20.4%; in test [8], 18.38%; with NB-4 [9] it was 18.15%; in test [10], 0.77%; with NB-4 [11] it was 1.78%. The viability at 10 µM in test [3] was 63.5%; in the test on NB-4 [4], 60.7%.
